The test system of one experiment is S. aureus JAR060131. The experiment is classed as cell-based, Staphylococcus aureus. As to conditions: for IC99.9: approx. 1 × 10^6 CFU/ml S. aureus JAR, within 2 hrs (Table 2). How it is done: Polypeptides of the invention preferably have an in vitro IC99.9 of at most 150 μM after 2 hours at 37° C. against at least one microbial species in the presence of 50% plasma. Said IC99.9 is preferably determined in accordance with a method for determining the antimicrobial activity as described herein in the Examples. Said method described in the Examples for determining antimicrobial activity of microbes not associated with biofilm involves the mixing of 50 microL of a solution of a polypeptide in PBS with addition of human plasma at a final concentration of 50% and 20 microL of bacterial suspension with 5×10^6 CFU per mL of PBS in a well. After incubation of this mixture for 2 hours at 37° C. under shaking conditions, a sample is used for assessment of the bacterial counts. The lowest peptide concentration at which there is 99.9% of bacteria killed, is called the inhibitory concentration (IC) 99.9. Bacterial counts can be determined by manual CFU counting. For determining antibacterial activity for instance 1×10^6 CFU/ml bacteria are used, for determining antifungal activity for instance 1×10^5 cells/ml are used.
(§1) Peptides were incubated with 1×10^6 CFU/ml of a mid-logarithmic culture of S. aureus JAR060131, methicillin resistant S. aureus (MRSA) LUH14616, Staphylococcus epidermidis RP62a, and Pseudomonas aeruginosa PAO1 in PBS without or with addition of pooled human plasma (Sanquin, Amsterdam, the Netherlands) at a final concentration of 50%. Antimicrobial activity is expressed as the 99.9% lethal concentration (LC99.9), i.e., the lowest peptide concentration which killed ≥99.9% of bacteria after 2 hours of incubation at 37° C. under shaking conditions.

The test system of a further experiment is A. niger PagsA-lux. Briefly: Effect on fungal growth. The experiment is classed as cell-based, Aspergillus niger. The note with it: 25% plasma; light micrographs only, 16 hours (FIG. 2). How it is done:
The effect of the peptides on fungal growth was assessed using Aspergillus niger. Peptides were incubated with 7.5×10^4 spores/ml of A. niger PagsA-lux in PBS without or with addition of pooled human plasma at a final concentration of 25%. As positive control, spores were treated with the antifungal caspofungin (Cancidas). Absorbance was measured over time and at 16 hours, fungal growth was visualized using light microscopy.

The subject of experiment [1] is LTA (S. aureus)-induced IL-8 production. Briefly: LTA neutralization in whole human blood. The format is cell-based. The text has this:
(§2) The term “anti-inflammatory activity” of a polypeptide as used herein refers to inhibiting, reducing or preventing an inflammatory response in a subject that has been infected by microbes, e.g. bacteria, viruses, fungi, and/or parasites. Anti-inflammatory activity of polypeptides of the invention is achieved by inhibiting, reducing or preventing the release of pro-inflammatory microbial compounds, such as lipoteichoic acid (LTA), peptidoglycan (PG) and/or lipopolysaccharides (LPS). Anti-inflammatory activity can be measured by methods known in the art. Examples of such method are a LPS neutralization assay and a LTA neutralization assay as described in the Examples of this application. In such method, a polypeptide of the invention is mixed with a fixed concentration of LPS or LTA, such as 500 ng/ml LPS or 2 mg/ml LTA, and incubated for 30 min. Thereafter, these mixtures were added to diluted fresh human whole blood and 20 hours thereafter the level of cytokines (e.g. 1L-8 for LTA and 1L-12p40 for LPS) in the blood sample are measured by ELISA.
(§3) Peptides were pre-incubated with 500 ng/ml LPS (E. coli 054) or 2 mg/ml LTA (S. aureus, endotoxin-free) or 1×10^9 CFU/ml of UV-killed S. aureus JAR060131 for 30 min at 37° C. Diluted whole human blood was stimulated with the peptide-LPS/LTA/S. aureus mixtures for 20 hours at 37° C. IL-12p40 and IL-8 levels in supernatants were determined using ELISA.

In experiment [2] the test system is LPS (E. coli 054)-induced IL-12p40 production. The experiment in a line: LPS neutralization in whole human blood. The format is cell-based. The note with it: LPS-induced IL-12p40; blood from two donors.
From the text: as §2, §3

Experiment [3] has as its system S. aureus JAR060131 biofilm formation. The format is cell-based, Staphylococcus aureus. As to the method: After solubilization with ethanol, the optical density at 590 nm is determined as a measure of biofilm mass.
Peptides were incubated with 1×10^8 CFU/ml of S. aureus JAR060131 in biofilm-adjusted BM2 in 96-wells polypropylene plates as described in Antimicrob Agents Chemother 2012; 56: 2696-2704. After 24 hours incubation at 37° C., planktonic bacteria were removed by four washes with PBS and biofilms were stained with crystal violet. After solubilization with ethanol, the optical density at 590 nm was determined as a measure of biofilm mass.
To assess the antibiofilm activity of the peptides in the presence of plasma, 96-wells polypropylene plates were coated with plasma by overnight incubation with 20% plasma at 4° C. Wells were washed once with sterile water and inoculated with S. aureus and peptides as described above.

The subject of experiment [4] is Staphylococcus epidermidis RP62a. The experiment is classed as cell-based. As to conditions: 50% plasma. As to the method:
as §1

The test system of experiment [5] is UV-killed S. aureus JAR060131-induced IL-8 production. The experiment in a line: S. aureus neutralization in whole human blood. The experiment is classed as cell-based. How it is done: as §3

Like-named read-outs stand apart in the source and are kept apart here.

As to “J LKKLYKRLFKLWKRLYRYLKKPVR B (Ac-LKKLYKRLFKLWKRLYRYLKKPVR-NH2) [Peptide P151]”, the results for the IC99.9 with S. aureus JAR060131 (50% plasma) and in the experiment on S. aureus JAR060131 (PBS) were 25.6 µM and 1.6 µM, respectively.
With “J LRRVYKRLARLIKRYLRQLKKPVR B (Ac-LRRVYKRLARLIKRYLRQLKKPVR-NH2) [Peptide P152]”, the IC99.9 amounted to 25.6 µM in the experiment on S. aureus JAR060131 (50% plasma) and 1.6 µM in the experiment on S. aureus JAR060131 (PBS).
On the same counts, the results for “J LRKLWKRVVKIWKRYLRQLRRPVR B (Ac-LRKLWKRVVKIWKRYLRQLRRPVR-NH2) [Peptide P153]” are 25.6 µM and 1.6 µM.
Taken in the same sequence, the figures for “J LKKLYKRLFKILKRILRYLRKPVR B (Ac-LKKLYKRLFKILKRILRYLRKPVR-NH2) [Peptide P146]” were 51.2 µM and 1.6 µM.
With “J LKKLYKRVAKIWKRWIRYLKKPVR B (Ac-LKKLYKRVAKIWKRWIRYLKKPVR-NH2) [Peptide P144]”, in the experiment on S. aureus JAR060131 (50% plasma), the “fold increase of activity in the presence of plasma as compared to OP-145” value (shortened to “fold increase of activity”) is given as 8 fold and the IC99.9 turned out to be 25.6 µM. Besides, the IC99.9 with S. aureus JAR060131 (PBS) was found to be 1.6 µM.
Regarding “J LRRVYKRLFRLWKRIIRQLRRPVR B (Ac-LRRVYKRLFRLWKRIIRQLRRPVR-NH2) [Peptide P158]”, the IC99.9 in the experiment on S. aureus JAR060131 (50% plasma) turned out to be 25.6 µM; in the experiment with S. aureus JAR060131 (PBS) it was 1.6 µM.
As for “J LKKVYKRVARLIKRLFRYLKRPVR B [Peptide P155]”, in the experiment with S. aureus JAR060131 (50% plasma), the “fold increase of activity” value amounted to 2 fold and the IC99.9 was 102.4 µM. Further, in the experiment with S. aureus JAR060131 (PBS), the IC99.9 worked out at 1.6 µM.
On to “J LKKLWKRLARLWKRIIRQLKKPVR B (Ac-LKKLWKRLARLWKRIIRQLKKPVR-NH2) [Peptide P160]”, for which the IC99.9 in the experiment with S. aureus JAR060131 (50% plasma) came out at 25.6 µM; in the experiment on S. aureus JAR060131 (PBS) it was 1.6 µM.
On to “J LKKVWKRVFRILKRFLRYLKRPVR B (Ac-LKKVWKRVFRILKRFLRYLKRPVR-NH2) [Peptide P157]”, for which the IC99.9 in the experiment on S. aureus JAR060131 (50% plasma) amounted to 51.2 µM; in the experiment on S. aureus JAR060131 (PBS), 0.8 µM.
“J LRRLWKRLVKLWKRFFRYLKKPVR B [Peptide P156]”: the IC99.9 with S. aureus JAR060131 (50% plasma) amounted to 51.2 µM; in the experiment on S. aureus JAR060131 (PBS), 1.6 µM.
For “J LRRLYKRVVKLWKRLFRQLRRPVR B (Ac-LRRLYKRVVKLWKRLFRQLRRPVR-NH2) [Peptide P143]”, in the experiment on S. aureus JAR060131 (50% plasma), the “fold increase of activity” value is on record as 4 fold and the IC99.9 amounted to 51.2 µM. This substance also registered an IC99.9 in the experiment with S. aureus JAR060131 (PBS) of 1.6 µM.
In the case of “J LRRLWKRLVRIIKRIYRQLKRPVR B (Ac-LRRLWKRLVRIIKRIYRQLKRPVR-NH2) [Peptide P140]”, the IC99.9 in the experiment on S. aureus JAR060131 (50% plasma) turned out to be 25.6 µM; in the experiment on S. aureus JAR060131 (PBS), 1.6 µM.
For the substance “J LKRLWKRLFKILKRYYRYLRRPVR B (Ac-LKRLWKRLFKILKRYYRYLRRPVR-NH2) [Peptide P162]”, the IC99.9 came out at 25.6 µM in the experiment with S. aureus JAR060131 (50% plasma) and 1.6 µM in the experiment on S. aureus JAR060131 (PBS).
On to “Ac-LKRLYKALAKLIKRLYRYLKKPVR-NH2 [Peptide P252, J LKRLYKALAKLIKRLYRYLKKPVR B]”, for which the LC99.9 with S. aureus JAR060131 (50% plasma, experiment 2013.01.15 (Table 6)) is 51.2 µM; in the experiment on S. aureus JAR060131 (50% plasma, experiment 2013.01.18 (Table 6)), 12.8 µM; with S. aureus JAR060131 (PBS, experiment 2013.01.15 (Table 6)), 1.6 µM; with S. aureus JAR060131 (PBS, experiment 2013.01.18 (Table 6)), 0.8 µM.
“J LRRLWKRLVKILKRWFRYLRRPVR B (Ac-LRRLWKRLVKILKRWFRYLRRPVR-NH2) [Peptide P142]”: the IC99.9 came out at 51.2 µM in the experiment on S. aureus JAR060131 (50% plasma) and 0.8 µM in the experiment with S. aureus JAR060131 (PBS).
Take “J LKKLWKRLARLLKRFIRQLRRPVR B (Ac-LKKLWKRLARLLKRFIRQLRRPVR-NH2) [Peptide P147]”: the IC99.9 in the experiment with S. aureus JAR060131 (50% plasma) was 51.2 µM; in the experiment on S. aureus JAR060131 (PBS) it was 1.6 µM.
For “Ac-LKRLYKRLAKLIKRLYRYLKKPVR-NH2 [Peptide P145, J LKRLYKRLAKLIKRLYRYLKKPVR B]”, the “concentration inhibiting A. niger growth” value in the experiment with A. niger PagsA-lux was 102.4 µM. Further, the IC99.9 in the experiment with S. aureus JAR060131 (50% plasma) turned out to be 25.6 µM; in the experiment with S. aureus JAR060131 (PBS), 1.6 µM. Further, the “fold increased LTA-neutralizing ability versus OP-145” value in experiment [1] came to 4 fold. For the same substance, the concentration for half-maximal inhibition (IC50) (in general, the midpoint of a concentration-inhibition curve) was 0.195 µM in experiment [1] (LTA-induced IL-8, blood from one donor); 6400 nM in experiment [3] (JAR060131 biofilm formation, 24 h); 1.56 µM in experiment [5] (UV-killed S. aureus JAR060131-induced IL-8, blood from one donor). For the same substance, in experiment [2], the IC90 (as a rule, the concentration at which the effect reaches the 90% level) was 0.75 nM. Moreover, the “concentration needed to inhibit biofilm formation for 50%, relative to OP-145 and P159” value in experiment [3] (plasma-coated wells (FIG. 3B)) is “two-fold higher concentration”. In addition, in experiment [4], the “higher bactericidal activity as compared to OP-145” value is listed as 43 fold. Moreover, the “fold higher concentration than OP-145 needed to inhibit S. aureus-induced IL-8 production for >50%” value in experiment [5] was 8 fold.
Take “J LKKVWKRVARLIKRWFRYLRRPVR B [Peptide P150]”: the IC99.9 in the experiment on S. aureus JAR060131 (50% plasma) was determined as 25.6 µM; with S. aureus JAR060131 (PBS) it was 1.6 µM.
As for “J LRRVWKRVARIIKRLYRYLKRPVR B (Ac-LRRVWKRVARIIKRLYRYLKRPVR-NH2) [Peptide P161]”, the IC99.9 was 25.6 µM with S. aureus JAR060131 (50% plasma) and 1.6 µM in the experiment with S. aureus JAR060131 (PBS).
Taken in the same sequence, the figures for “J LRRLYKRVFRLLKRWWRYLKRPVR B (Ac-LRRLYKRVFRLLKRWWRYLKRPVR-NH2) [Peptide P141]” were 25.6 µM and 0.8 µM.
On the same counts, the results for “J LRKLWKRLAKIIKRLYRYLRRPVR B (Ac-LRKLWKRLAKIIKRLYRYLRRPVR-NH2) [Peptide P154]” are 51.2 µM and 1.6 µM.
For the substance “J LRRLWKRVFKIIKRLFRQLKKPVR B (Ac-LRRLWKRVFKIIKRLFRQLKKPVR-NH2) [Peptide P163]”, the IC99.9 in the experiment with S. aureus JAR060131 (50% plasma) was 25.6 µM; in the experiment on S. aureus JAR060131 (PBS), 0.8 µM.
Taken in the same sequence, the figures for “J LKKLWKRVFRIWKRIFRYLKRPVR B (Ac-LKKLWKRVFRIWKRIFRYLKRPVR-NH2) [Peptide P139]” were 51.2 µM and 0.8 µM.
Turning to “J LKKVYKRLARLLKRYIRYLRRPVR B (Ac-LKKVYKRLARLLKRYIRYLRRPVR-NH2) [Peptide P149]”, in the experiment on S. aureus JAR060131 (50% plasma), the “fold increase of activity” value amounted to 2 fold and the IC99.9 turned out to be 102.4 µM. In the experiment with S. aureus JAR060131 (PBS), the IC99.9 is 1.6 µM.

The values are drawn from patent US10130677B2, “Antimicrobial peptide and uses thereof” (priority 2013, dated 2018).
